Measurements from ChEMBL document CHEMBL1201862, “PubChem BioAssay data set” (2004).
Calls of active or inactive are those of the source.

What was measured:
[1] = target: T1, Tyrosyl-DNA phosphodiesterase 2 (Homo sapiens, UniProt O95551); assay: human TDP2 enzyme inhibitors, dose response, biochemical, epi absorbance, IC50 (AID 743297)
T1 sequence (O95551 whole entry): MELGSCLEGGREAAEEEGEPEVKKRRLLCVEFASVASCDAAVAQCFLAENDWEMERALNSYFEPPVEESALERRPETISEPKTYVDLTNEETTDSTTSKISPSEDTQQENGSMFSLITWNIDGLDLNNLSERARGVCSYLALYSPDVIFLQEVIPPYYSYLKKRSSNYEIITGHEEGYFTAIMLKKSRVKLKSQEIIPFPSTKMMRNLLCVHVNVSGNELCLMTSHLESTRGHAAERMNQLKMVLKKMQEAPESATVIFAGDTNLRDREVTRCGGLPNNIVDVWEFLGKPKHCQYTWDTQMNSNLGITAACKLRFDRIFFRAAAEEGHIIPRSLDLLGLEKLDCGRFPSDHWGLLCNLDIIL

Large T antigen = Large T antigen (Simian virus 40, UniProt P03070); assay type: functional, Betapolyomavirus macacae;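 further: Confirmatory-stage PubChem screen for compounds that inhibit SV40 T antigen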
Large T antigen, sequence (P03070 whole entry): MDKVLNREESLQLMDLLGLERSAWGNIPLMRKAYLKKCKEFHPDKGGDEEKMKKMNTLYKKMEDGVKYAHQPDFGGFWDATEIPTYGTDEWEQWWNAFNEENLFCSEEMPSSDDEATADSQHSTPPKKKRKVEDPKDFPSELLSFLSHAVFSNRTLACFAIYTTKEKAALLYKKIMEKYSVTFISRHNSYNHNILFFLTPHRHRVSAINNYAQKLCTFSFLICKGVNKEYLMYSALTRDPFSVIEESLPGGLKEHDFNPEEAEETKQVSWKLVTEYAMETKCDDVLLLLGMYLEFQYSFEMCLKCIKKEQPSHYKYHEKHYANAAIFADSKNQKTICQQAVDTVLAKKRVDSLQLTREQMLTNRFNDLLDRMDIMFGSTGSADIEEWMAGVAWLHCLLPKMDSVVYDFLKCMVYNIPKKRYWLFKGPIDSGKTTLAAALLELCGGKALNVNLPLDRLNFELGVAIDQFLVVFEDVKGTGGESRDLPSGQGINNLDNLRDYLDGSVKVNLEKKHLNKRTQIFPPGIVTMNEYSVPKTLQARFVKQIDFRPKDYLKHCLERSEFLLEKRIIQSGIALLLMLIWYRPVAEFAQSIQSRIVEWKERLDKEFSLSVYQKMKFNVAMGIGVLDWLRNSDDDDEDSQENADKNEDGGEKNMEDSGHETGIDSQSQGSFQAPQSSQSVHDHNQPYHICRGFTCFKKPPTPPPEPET

[2] = target: T2, Low molecular weight phosphotyrosine protein phosphatase (Homo sapiens, UniProt P24666); assay type: functional; details: read-out: IC50_Mean;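 further: Dose-response confirmation assay measuring inhibition of LMPTP enzyme activity by fluorescence intensity read-out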
T2 sequence (P24666 whole entry): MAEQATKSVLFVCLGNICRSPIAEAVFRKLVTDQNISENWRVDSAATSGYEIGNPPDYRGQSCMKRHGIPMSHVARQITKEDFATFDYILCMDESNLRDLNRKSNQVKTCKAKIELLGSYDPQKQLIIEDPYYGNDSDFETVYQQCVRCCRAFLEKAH

[3] = target: Glucose-6-phosphate 1-dehydrogenase (Homo sapiens, UniProt P11413); assay: human G6PD enzyme inhibitors, dose response, selectivity assay for P. falciparum G6PD inhibitor project, biochemical, fluorescence (AID 504792); assay type: functional
Glucose-6-phosphate 1-dehydrogenase, sequence (P11413 whole entry): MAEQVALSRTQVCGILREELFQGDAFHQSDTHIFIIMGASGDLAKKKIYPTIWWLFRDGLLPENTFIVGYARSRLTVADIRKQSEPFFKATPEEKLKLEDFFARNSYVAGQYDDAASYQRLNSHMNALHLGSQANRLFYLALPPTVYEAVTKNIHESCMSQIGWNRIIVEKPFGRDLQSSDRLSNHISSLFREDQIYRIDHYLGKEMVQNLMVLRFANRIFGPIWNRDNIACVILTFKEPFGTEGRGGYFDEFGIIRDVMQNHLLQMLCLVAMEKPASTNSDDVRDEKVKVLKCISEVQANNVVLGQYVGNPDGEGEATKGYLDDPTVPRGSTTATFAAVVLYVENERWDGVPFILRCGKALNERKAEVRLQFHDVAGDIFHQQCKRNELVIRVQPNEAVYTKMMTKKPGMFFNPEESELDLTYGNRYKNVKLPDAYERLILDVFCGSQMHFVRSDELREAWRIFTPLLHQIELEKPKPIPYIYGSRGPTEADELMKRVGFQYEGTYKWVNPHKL

[4] = intracellular Trypanosoma cruzi inhibitors in host cells – cell-based, plate reader, cherry-pick samples, set 3, dose response (AID 651818); assay type: functional;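 further: compounds incubated with infected cells for about four days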
[5] = A549 cell cytotoxicity, dose response, cytotoxicity control, plate reader, cherry-pick, antagonist series (AID 743412); assay type: functional, cell-based
[6] = HepG2 cell cytotoxicity, dose response, cytotoxicity control, plate reader, cherry-pick, antagonist series (AID 743416); assay type: functional, cell-based
[7] = LGR2 antagonists, dose response, cell-based, HEK293, CRE-luciferase reporter, cherry pick, set 2 (AID 743343); assay type: functional;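 further: transfected cells were stimulated with diluted bursicon conditioned medium after compound addition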
[8] = MC4R antagonists, dose response, counter-screen for LGR2 antagonist project, cell-based, plate reader, cherry pick (AID 743444); assay type: functional;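 further: transfected HEK 293 cells stimulated with alpha-MSH peptide; potency of inhibitors of the alpha-MSH evoked signal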
P388/ADR = assay: cells; assay type: functional; details: Mus musculus
SN12K1 = assay: cells; assay type: functional; details: Homo sapiens
P388 = assay: cells; assay type: functional; details: Mus musculus
Nonstructural protein 1 = Nonstructural protein 1 (Influenza A virus, UniProt Q194T2); assay type: functional, Influenza A virus (A/California/07/2009(H1N1))
Nonstructural protein 1, sequence (Q194T2 whole entry): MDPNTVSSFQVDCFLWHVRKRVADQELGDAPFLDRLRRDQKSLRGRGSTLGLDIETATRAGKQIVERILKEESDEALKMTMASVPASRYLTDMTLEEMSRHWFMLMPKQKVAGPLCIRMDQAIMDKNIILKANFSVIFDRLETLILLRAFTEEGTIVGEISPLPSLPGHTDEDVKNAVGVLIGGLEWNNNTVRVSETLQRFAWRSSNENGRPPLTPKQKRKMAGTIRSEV

H9c2 = assay: cells; assay type: functional, cell-based; details: Rattus norvegicus, H9c2, Myocardium;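 further: confirmatory concentration-response retest of ultra-high-throughput screening hits for modulation of myocardial damage; cell death induced by hydrogen peroxide oxidative stress; compound pretreatment for 60 min then peroxide exposure for 2 h; potency is for protecting the cells against peroxide damage rather than for killing them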
[9] = target: T3, Carboxy-terminal domain RNA polymerase II polypeptide A small phosphatase 1 (Homo sapiens, UniProt Q9GZU7); assay: inhibitors of CTDSP1, concentration-response testing, biochemical assay, absorbance-based, actives from ultra-high-throughput screening (AID 540297); assay type: functional
T3 sequence (Q9GZU7 whole entry): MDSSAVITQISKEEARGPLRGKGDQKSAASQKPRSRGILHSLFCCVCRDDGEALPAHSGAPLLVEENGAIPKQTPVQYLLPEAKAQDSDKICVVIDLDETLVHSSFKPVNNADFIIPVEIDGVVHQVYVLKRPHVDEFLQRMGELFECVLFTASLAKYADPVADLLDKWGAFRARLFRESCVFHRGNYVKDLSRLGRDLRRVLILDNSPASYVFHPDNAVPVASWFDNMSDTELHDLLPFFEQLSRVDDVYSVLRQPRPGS

Cytochrome P450 2D6 = Cytochrome P450 2D6 (Homo sapiens, UniProt P10635);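 further: CYP2D6 member of a cytochrome P450 panel assay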
Cytochrome P450 2D6, sequence (P10635 whole entry): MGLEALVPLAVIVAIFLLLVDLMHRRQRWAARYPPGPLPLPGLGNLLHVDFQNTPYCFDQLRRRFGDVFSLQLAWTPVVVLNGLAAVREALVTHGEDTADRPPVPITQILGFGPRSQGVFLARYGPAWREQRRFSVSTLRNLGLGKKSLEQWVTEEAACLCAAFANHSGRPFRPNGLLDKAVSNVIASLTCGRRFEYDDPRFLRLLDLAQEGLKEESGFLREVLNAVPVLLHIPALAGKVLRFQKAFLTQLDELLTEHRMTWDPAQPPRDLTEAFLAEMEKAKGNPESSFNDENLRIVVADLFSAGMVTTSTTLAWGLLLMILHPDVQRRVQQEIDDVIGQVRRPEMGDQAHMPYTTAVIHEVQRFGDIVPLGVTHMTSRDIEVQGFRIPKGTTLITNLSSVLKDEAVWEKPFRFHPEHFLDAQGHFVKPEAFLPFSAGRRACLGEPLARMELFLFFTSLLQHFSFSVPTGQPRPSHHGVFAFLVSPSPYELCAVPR

[10] = target: Glyceraldehyde-3-phosphate dehydrogenase (Homo sapiens, UniProt P04406)
Glyceraldehyde-3-phosphate dehydrogenase, sequence (P04406 whole entry): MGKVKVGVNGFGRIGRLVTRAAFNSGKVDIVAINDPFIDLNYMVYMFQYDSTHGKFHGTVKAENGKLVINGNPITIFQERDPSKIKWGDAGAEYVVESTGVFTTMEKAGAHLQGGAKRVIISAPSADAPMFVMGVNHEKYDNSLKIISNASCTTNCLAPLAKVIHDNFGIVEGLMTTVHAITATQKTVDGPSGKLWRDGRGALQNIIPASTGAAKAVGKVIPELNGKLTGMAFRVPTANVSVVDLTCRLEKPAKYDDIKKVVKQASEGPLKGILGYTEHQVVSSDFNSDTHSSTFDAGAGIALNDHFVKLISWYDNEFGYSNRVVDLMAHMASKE

[11] = inhibitors of firefly luciferase expression or activity, dose response, H4 neuroglioma cells, luminescence (AID 1990); assay type: functional, cell-based
[12] = Luminescence Cell-Based Dose Response HTS to Identify Inhibitors of 5'UTR Stem-Loop Driven Prion Protein mRNA Translation in H4 Neuroglioblastoma Cells. [Related pubchem assays: 1827 (Project Summary), 1813 (Primary HTS)]; assay type: functional
[13] = inhibitors of SNCA 5'UTR-driven reporter translation, confirmation, H4 neuroglioma cells, luminescence (AID 1988); assay type: functional, cell-based
[14] = target: T4, Corticotropin-releasing factor receptor 2/Corticotropin-releasing factor-binding protein (Homo sapiens, UniProt P24387+Q13324); assay: Dose Response confirmation of uHTS hits for small molecule antagonists of the CRF-binding protein and CRF-R2 receptor complex.; assay type: functional; details: read-out: IC50_Mean
T4 sequence (Q13324 whole entry): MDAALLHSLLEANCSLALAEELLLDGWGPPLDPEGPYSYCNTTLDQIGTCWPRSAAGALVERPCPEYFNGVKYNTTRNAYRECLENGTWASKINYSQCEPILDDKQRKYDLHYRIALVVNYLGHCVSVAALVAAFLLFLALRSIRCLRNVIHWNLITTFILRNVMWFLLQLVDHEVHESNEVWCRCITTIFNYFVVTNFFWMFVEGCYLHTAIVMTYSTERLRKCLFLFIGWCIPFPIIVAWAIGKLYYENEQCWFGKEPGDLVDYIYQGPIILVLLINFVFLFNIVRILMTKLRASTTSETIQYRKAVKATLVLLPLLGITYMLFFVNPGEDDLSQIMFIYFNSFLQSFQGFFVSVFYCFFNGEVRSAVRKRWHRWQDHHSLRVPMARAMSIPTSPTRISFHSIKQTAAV
T4 sequence (P24387 whole entry): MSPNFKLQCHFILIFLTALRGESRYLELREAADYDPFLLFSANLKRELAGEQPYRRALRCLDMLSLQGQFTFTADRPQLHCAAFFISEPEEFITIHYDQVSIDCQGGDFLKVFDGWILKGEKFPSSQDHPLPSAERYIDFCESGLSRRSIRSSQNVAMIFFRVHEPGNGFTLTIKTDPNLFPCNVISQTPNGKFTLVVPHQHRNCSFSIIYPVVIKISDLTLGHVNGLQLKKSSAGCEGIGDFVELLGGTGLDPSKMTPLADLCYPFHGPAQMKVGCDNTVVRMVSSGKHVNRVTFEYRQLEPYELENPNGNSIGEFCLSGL

[15] = target: T4, Corticotropin-releasing factor receptor 2/Corticotropin-releasing factor-binding protein; assay: activators of CRF receptor 2 with binding protein – uHTS hits, confirmation (AID 602473); assay type: functional; details: read-out: EC50_Mean
[16] = Luminescent dose response cell-based high throughput screening assay for inhibitors of the Janus kinase 2 mutant JAK2V617F. [Related pubchem assays: 1446 (Primary screen.), 1521 (Confirmation assay.), 1486 (Counter screen.)]; assay type: functional
[17] = HEK293 cell cytotoxicity, dose response, cytotoxicity control, plate reader, cherry-picked samples (AID 743446); assay type: functional, cell-based
Estrogen receptor beta [18] = target: T5, Estrogen receptor beta (Homo sapiens, UniProt Q92731);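 further: recombinant ER-beta bound to coactivator SRC1 peptide in presence of estradiol agonist; inhibitors block coactivator peptide binding and lower the FRET signal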
T5 sequence (Q92731 whole entry): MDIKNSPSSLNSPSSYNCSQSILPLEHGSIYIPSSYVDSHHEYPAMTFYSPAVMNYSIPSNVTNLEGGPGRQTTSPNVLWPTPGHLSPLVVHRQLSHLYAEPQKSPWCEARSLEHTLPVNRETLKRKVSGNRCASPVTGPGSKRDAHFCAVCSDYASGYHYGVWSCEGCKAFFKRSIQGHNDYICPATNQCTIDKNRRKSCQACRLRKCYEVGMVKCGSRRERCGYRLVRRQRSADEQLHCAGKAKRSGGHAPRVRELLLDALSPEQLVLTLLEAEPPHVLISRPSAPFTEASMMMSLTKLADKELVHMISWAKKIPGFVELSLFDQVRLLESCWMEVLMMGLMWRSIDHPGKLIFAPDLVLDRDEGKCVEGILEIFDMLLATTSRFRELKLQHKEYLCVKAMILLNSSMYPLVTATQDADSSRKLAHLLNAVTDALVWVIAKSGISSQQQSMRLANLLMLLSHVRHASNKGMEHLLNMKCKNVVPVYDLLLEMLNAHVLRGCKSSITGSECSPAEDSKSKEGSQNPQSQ

Estrogen receptor beta [19] = target: T5, Estrogen receptor beta; assay: ERβ–SRC-3 coactivator interaction inhibitors, confirmation, orthogonal assay, biochemical, ELISA, streptavidin-HRP readout (AID 1060)

CC1=NN(c2ccc(C)c(C)c2)C(=O)/C1=C/c1ccc2c(c1)n(C)c(=O)n2C
IC50 [1]: > 128 µM (inactive)

Nc1ccc2[nH]c(CCCCCCCCc3nc4cc(N)ccc4[nH]3)nc2c1
IC50 (Large T antigen): 18.7 µM (active) | IC50 [2]: 11.4 µM (active)

Cc1ccccc1N/C(SCc1cccc(Br)c1)=C(/C#N)C(N)=O
IC50 [3]: > 80 µM (inactive)

Cc1noc(C)c1S(=O)(=O)Nc1ccc2c(c1)CC(=O)N([C@H](C)CO)C[C@@H](C)[C@H](CN(C)Cc1ccc(Oc3ccccc3)cc1)O2
AC50 [4]: 6.34 µM (active)

C[C@H](CO)N1C[C@H](C)[C@H](CN(C)Cc2ccncc2)Oc2ncc(C#CCC3CCCCC3)cc2C1=O
AC50 [5]: 16.1 µM (active) | AC50 [6]: 15.3 µM (active) | AC50 [7]: 30 µM (active) | AC50 [8]: 63.3 µM (active)

Cc1ccc(N2C(=O)C3CSCN3C2=O)cc1 (centres undefined)
GI50 (P388/ADR): > 100 µM (inactive) | GI50 (SN12K1): > 100 µM (inactive) | GI50 (P388): > 100 µM (inactive)

CC(=O)OC1CCC2(C)C3CCC4(C)C(c5ccc(=O)oc5)CC5OC54C3CCC2(O)C1 (centres undefined)
GI50 (P388/ADR): > 200 µM (inactive) | GI50 (SN12K1): 0.948 µM (active) | GI50 (P388): > 200 µM (inactive)

Cc1cc(N2CCN(C(=O)Nc3ccccc3C#N)CC2)c2ccccc2n1
IC50 [2]: 21.3 µM (inactive)

O=C(Nc1nc(-c2ccccn2)cs1)c1cc(S(=O)(=O)N2CCOCC2)ccc1F
IC50 (Nonstructural protein 1): 7.21 µM (active) | IC50 (H9c2): 39.8 µM (inactive)

C[C@H]1CN([C@@H](C)CO)C(=O)Cc2cc(NC(=O)Nc3ccc4c(c3)OCO4)ccc2O[C@H]1CN(C)Cc1ccc(C(F)(F)F)cc1
AC50 [4]: 7.92 µM (active)

O=C(Nc1ccc(S(=O)(=O)Nc2nccs2)cc1)c1nn(-c2ccc(F)cc2)ccc1=O
IC50 [9]: 4.55 µM (active) | IC50 [2]: 22.3 µM (inactive)

CCN(CC)CC[n+]1ccc2c(C)c3[nH]c4ccc(O)cc4c3c(C)c2c1
GI50 (P388/ADR): 2.21 µM (inactive) | GI50 (SN12K1): 0.948 µM (active) | GI50 (P388): 0.012 µM (active) | AC50 (Cytochrome P450 2D6): 6.31 µM (inconclusive)

O=C1C(Cl)=C(N2CCN(Cc3ccc4c(c3)OCO4)CC2)C(=O)N1c1ccnc(Cl)c1
IC50 [10]: > 50 µM (inconclusive)

C[C@H](CO)N1C[C@H](C)[C@H](CN(C)Cc2ccc(-c3ccccc3)cc2)Oc2c(NC(=O)Nc3ccc(C(F)(F)F)cc3)cccc2C1=O
AC50 [4]: 6 µM (active)

CN(C)CC1CCCC(CN(C)C)C1=O (centres undefined)
GI50 (P388/ADR): 0.0164 µM (active) | GI50 (SN12K1): 16.3 µM (inactive) | GI50 (P388): 0.0614 µM (active)

COc1cccc(N2C(=O)C(Cl)=C(N3CCN(Cc4ccccc4)CC3)C2=O)c1
IC50 [10]: > 50 µM (inconclusive)

O=C(Nc1ccccn1)c1sc2cc([N+](=O)[O-])ccc2c1Cl
IC50 [3]: > 80 µM (inactive)

O=C(CSc1n[nH]c(-c2ccccn2)n1)Nc1ccc(F)cc1
EC50 [11]: 12.6 µM (active) | EC50 [12]: 11.5 µM (active) | EC50 [13]: > 120 µM (not active) | IC50 (Nonstructural protein 1): 5.65 µM (active)

Cc1ccccc1OCC(=O)NCC(=O)OCC(=O)c1ccc([N+](=O)[O-])cc1
IC50 [3]: > 80 µM (inactive)

COC1(OC)C=CC(=O)C=C1NC(=O)c1ccccc1OC(C)=O
IC50 [3]: > 80 µM (inactive) | IC50 [14]: > 47.1 µM (inactive) | EC50 [15]: > 53 µM (inactive)

Cc1c(N/N=C2\C(=O)NC(=O)N(c3ccc(Br)cc3)C2=O)c(=O)n(-c2ccccc2)n1C
IC50 (Nonstructural protein 1): 6.25 µM (active)

CC1=C2C(O)C(C(C)C(=O)NC(C)C)CCC2(C)C=CC1=O (centres undefined)
GI50 (P388/ADR): > 100 µM (inactive) | GI50 (SN12K1): > 100 µM (inactive) | GI50 (P388): > 100 µM (inactive)

Oc1ccc(/C=N/N2CCN(C3c4ccccc4-c4ccccc43)CC2)cc1O
IC50 [16]: 3.62 µM (active)

COc1ccc(-c2cc(-c3nnc(COC(=O)C4CC4)o3)c3ccccc3n2)cc1OC
IC50 (H9c2): > 79 µM (inactive) | AC50 [5]: > 52 µM (inactive) | AC50 [7]: 43.2 µM (active) | AC50 [17]: > 52 µM (inactive)

C[C@@H]1CN([C@H](C)CO)C(=O)c2cccc(NC(=O)Nc3ccc4c(c3)OCO4)c2O[C@@H]1CN(C)Cc1ccc(C(=O)Nc2ccccc2N)cc1
AC50 [4]: 2.84 µM (active)

CC1CN(c2ccccc2)NC1=O (centres undefined)
IC50 [3]: 41.2 µM (inactive)

CC(=O)Nc1cc2c(cc1[N+](=O)[O-])-c1ccccc1C2O (centres undefined)
IC50 [3]: > 80 µM (inactive)

COCCn1c(C)cc(C(=O)COC(=O)c2cc3c(s2)CCC3)c1C
IC50 (Estrogen receptor beta [18]): > 50 µM (not active) | IC50 (Estrogen receptor beta [19]): 14.9 µM (active) | IC50 [9]: 7.35 µM (active) | IC50 [14]: > 47.1 µM (inactive) | EC50 [15]: > 53 µM (inactive)

CCOC(=O)Nc1ccc2c(c1)N(C(=O)CCN(CC)CC)c1ccccc1S2 [ETHACIZINE]
GI50 (SN12K1): 33.6 µM (inactive) | GI50 (P388): 9.46 µM (inactive)
